{"source": "patent US20140086827A1", "about": "“Serum S100B And Uses Thereof” (THE CLEVELAND CLINIC FOUNDATION, priority 2011, published 2014)", "key": {"CD3+ T-lymphocytes": {"system": "CD3+ T-lymphocytes", "experiment": "FACS analysis of circulating T-lymphocytes in rat blood", "type": "in vivo", "details": "after dexamethasone treatment, rats", "procedure": "(§1) The schedule of blood sampling is illustrated in FIG. 14A. Blood was collected from the tail vein using a fixed catheter (Venisystem, Abbocath, 22 G, 300-500 μl/sample). For FACS analysis, 150 μL of whole blood were incubated with a combination of specific antibodies recognizing T-cell subpopulation (CD3+). In particular mouse anti-rat CD8a-FITC, CD3-R-PE and CD4-PE-Cy5 (BD-Pharmingen) were added (2 μL, 5 μL and 5 μL respectively) to blood samples. Blood samples were analyzed by the FACS-Core facility at the Cleveland Clinic. IL-1β ELISA-tests was purchased from Pierce Biotechnology Inc. and performed as described by the vendor."}, "IL-1β": {"system": "IL-1β", "experiment": "Serum IL-1β ELISA in rats", "type": "in vivo, rat", "details": "dexamethasone treatment", "procedure": "as §1"}, "pilocarpine-induced SE [1]": {"system": "pilocarpine-induced SE", "experiment": "Pilocarpine-induced status epilepticus in rats (EEG, Racine's scale, mortality)", "type": "in vivo, rat", "details": "for time to onset of SE: rats that developed SE", "procedure": "Rats (male Sprague-Dawley 225-250 g) were injected with methylscopolamine (0.5 mg/kg, i.p., Sigma-Aldrich) and 30 minutes after with pilocarpine (340 mg/Kg, Sigma-Aldrich). Data obtained from a total of 45 rats was analyzed (see also FIG. 14B). Development of seizure and status epilepticus was evaluated by behavioral (Racine's scale) and EEG assessment. […] IL-RA data included here are relative to [Marchi N., et al. (2009) Neurobiol Dis 33: 171-181]. IL-RA was administrated in the tail vein (30 μg/kg) 2 hours before scopolamine/pilocarpine treatment.\nNote that blood samples were taken at baseline, after each treatment and immediately before (or at onset) of status epilepticus (SE), as evaluated by EEG and behavioral (Racine's Scale) assessments. This methodology has been used in the past to evaluate the presence of BBB damage and inflammatory process preceding seizure onset [Uva L., et al. (2008) Neuroscience 151: 303-312].\nStereotactic electrode implantation was performed in rats under isofluorane anaesthesia, using the Kopf stereotactic frame. Approximately, half of the rats used were implanted. Four stainless steel screws (MX-0090-2, Small Parts Inc., Miami, Fla.) were placed bilaterally on the dura mater of the fronto-parietal cortex. A prefabricated Pinnacle pre-amplifier was connected to the screws. The system has three bio-potential channels—2 EEG and 1 EMG. Prefabricated head implants (Pinnacle Inc., USA) ensured accurate electrode positioning and reliable, robust contacts. Cable artifacts are eliminated by pre-amplification of the EEG and EMG waveforms at the animal's head. EEG data were sampled a rate of 200 Hz. All data are transferred via a USB connection to a PC. Rats were left unrestrained for 2 weeks to recovery from surgery before EEG recordings were performed. Each rat was kept in a separate cage under 12-hours dark-light cycles with free access to food and water. Origin Microcal 7.0 and Diadem (National Instruments) was used in conjunction to the acquisition system for data analysis (e.g., time joint frequency analysis)."}, "[2]": {"system": "drug-resistant epileptic seizures", "experiment": "Add-on glucocorticosteroid or ACTH treatment in pediatric drug resistant epilepsy (review of clinical data)", "type": "in vivo, human", "details": "for occurrence of seizures (seizure burden vs baseline): add-on treatment, pediatric drug resistant epilepsy, 53 treatments", "procedure": "The study was conducted according to the Declaration of Helsinki Criteria and to the procedures for compassionate drug administration approved by the Ethic Committees of Carlo Besta Institute (Milan, Italy). Oral informed consent from was obtained from parents by specialized neurologists. Administration of GCs was considered compassion care since all patients had intractable life threatening seizures. The clinical data of 43 patients (Table 4) of the Carlo Besta Neurological Institute (Milan, Italy) was reviewed. […] Patients with a history of epileptic syndromes known to respond to steroids (i.e., West, Lennox-Gastaut, Landau-Kleffner and Rasmussen encephalitis) as well as patients affected by documented inflammatory brain disease were excluded. All the subjects received steroid treatment on an in-patient basis.\nPatients received GCs or ACTH therapy because of one of the following: 1) >50% increase in seizure frequency; 2) development of non-convulsive status epilepticus; 3) presence of epilepsia partialis continua (EPC). Before GCs or ATCH treatment, patients were evaluated by a team of neurologists, physiologists, and underwent EEG and routine laboratory examinations. Antiepileptic treatments were maintained during the steroid course (Table 4).\nSteroidal treatment was, when successful, repeated in case of seizure recurrence. […] GCs or ATCH therapy was considered successful when: 1) seizure frequency decreased by 50%; 2) status epilepticus was stopped; 3) or when epilepsia partialis continua (EPC) was stopped/reduced enough to allow voluntary movement in the affected body district. Duration of treatment was limited to acute dosing, which was repeated when the initial response was beneficial. The effects of length of treatments and efficacy/toxicity of chronic use are not presented herein, since this study design only addressed a proof of principle use of steroids in pediatric epilepsy."}, "seizures": {"system": "seizures", "details": "drug-resistant children, Araki 2006; cited from earlier work"}, "blood-brain barrier": {"system": "blood-brain barrier", "details": "IL-RA pre-treatment; previously reported; cited from earlier work"}, "pilocarpine-induced SE [3]": {"system": "pilocarpine-induced SE", "details": "data from Marchi 2009, cited from earlier work"}, "[4]": {"details": "dexamethasone pre-treatment, vs pilocarpine alone"}}, "note": "“Also recorded” adds a separate entry of the source. Like-named read-outs stand apart in the source and are kept apart here."}
{"molecule": "C[C@@H]1C[C@H]2[C@@H]3CCC4=CC(=O)C=C[C@]4(C)[C@@]3(F)[C@@H](O)C[C@]2(C)[C@@]1(O)C(=O)CO", "note": "[dexamethasone]", "values": [{"measurement": "number of circulating CD3+ T-lymphocytes", "setting": "CD3+ T-lymphocytes", "value": "drastic reduction; also recorded: drastic decrease"}, {"measurement": "relative percentage of CD8+ subpopulation among CD3+ cells", "setting": "CD3+ T-lymphocytes", "value": "significantly affected"}, {"measurement": "serum IL1-β levels", "setting": "IL-1β", "value": "reduced"}, {"measurement": "serum IL1-β levels", "setting": "IL-1β; listed as Dexamethasone", "value": "significantly reduced"}, {"measurement": "time to onset of SE", "setting": "pilocarpine-induced SE [1]; [4]", "value": "significantly delayed"}, {"measurement": "time to onset of SE", "setting": "pilocarpine-induced SE [1]; dexamethasone pre-treatment, vs pilocarpine alone, listed as Dexa", "value": "delayed"}, {"measurement": "mortality associated with pilocarpine SE (twelve hours)", "setting": "pilocarpine-induced SE [1]; dexamethasone pre-treatment, seizures not stopped with barbiturates", "value": "significantly decreased; also recorded: abolishes mortality; also recorded: reduced mortality; also recorded: abolished"}, {"measurement": "early EEG burst clusters (time-joint frequency analysis)", "setting": "pilocarpine-induced SE [1]; [4]", "value": "reduced in amplitude and frequency"}, {"measurement": "effects of single dosage of 1 mg/day on pilocarpine seizures", "setting": "pilocarpine-induced SE [1]; single dosage of 1 mg/day", "value": "did not exert any discernable effects"}, {"measurement": "occurrence of seizures (seizure burden vs baseline)", "setting": "[2]", "value": "significantly reduced"}, {"measurement": "MRI FLAIR hyperintensity", "setting": "[2]; patient after dexamethasone treatment, concurrent with seizure reduction", "value": "decrease in FLAIR hyperintensity"}, {"measurement": "seizure frequency vs untreated patients", "setting": "seizures", "value": "reduced seizure frequency"}]}
{"molecule": "C[C@]12CCC(=O)C=C1CC[C@@H]1[C@@H]2[C@@H](O)C[C@@]2(C)[C@H]1CC[C@]2(O)C(=O)CO", "note": "[hydrocortisone]", "values": [{"measurement": "blood-brain barrier function and seizure frequency in epileptic patients receiving anti-inflammatory therapy", "setting": "[2]; epileptic patients, clinical dosage", "value": "comparable effects"}]}
{"molecule": "IL-RA: IL-1 receptor antagonist, data from Marchi 2009", "values": [{"measurement": "pilocarpine-induced BBB damage", "setting": "blood-brain barrier", "value": "prevents BBB damage"}, {"measurement": "early EEG burst clusters (time-joint frequency analysis)", "setting": "pilocarpine-induced SE [3]; IL1-RA pre-treatment", "value": "reduced in amplitude and frequency"}, {"measurement": "number of rats developing SE / seizure occurrence", "setting": "pilocarpine-induced SE [3]; IL-RA 30 μg/kg tail vein 2 hours before scopolamine/pilocarpine", "value": "reduces seizure occurrence"}, {"measurement": "mortality associated with pilocarpine seizures (twelve hours)", "setting": "pilocarpine-induced SE [3]; IL-RA pre-treatment", "value": "decreased"}, {"measurement": "time to onset of SE", "setting": "pilocarpine-induced SE [3]; IL-RA pre-treatment", "value": "delayed"}]}
{"molecule": "adrenocorticotropic hormone (SYSMEHFRWGKPVGKKRRPVKVYPNGAEDESAEAFPLEF; Corticotropin; UniProt P01189 138-176, looked up) [ACTH]", "values": [{"measurement": "occurrence of seizures (seizure burden vs baseline)", "setting": "[2]", "value": "significantly reduced"}]}
